# Data reported in paper PMC5988656, “Phase I studies of AZD1208, a proviral integration Moloney virus kinase inhibitor in solid and haematological cancers” (British Journal of Cancer, 2018).
# Tested on: advanced solid tumours
# Test: Solid tumour study: tumour response (RECIST v.1.1)
# Type: in vivo, human
# Conditions: for Best response: CR / Best response: Death / Best response: Not evaluable / Best response: Partial response / Best response: Progression / Best response: Stable disease ≥6 weeks: RECIST criteria
# Method: In the solid tumour study, responses were evaluated using RECIST v.1.1. Contrast-enhanced CTs of the chest, abdomen, pelvis and neck were performed at screening (≤28 days before the start of study treatment), every 6 weeks (±1 week) up to 12 weeks, and then every 12 weeks (±1 week) until discontinuation of study treatment or withdrawal of consent, starting from Day 1 of Cycle 1.
compound,measurement,setting,value
N[C@@H]1CCCN(c2c(/C=C3\SC(=O)NC3=O)cccc2-c2ccccc2)C1 [AZD1208],"Discontinued study treatment due to disease progression, patients",35 patients,65.7%
same,Best response: CR,"120 mg, n=3",0 n (%)
same,Best response: Death,"120 mg, n=3",0 n (%)
same,Best response: Not evaluable,"120 mg, n=3",0 n (%)
same,Best response: Partial response,"120 mg, n=3",0 n (%)
same,Best response: Progression,"120 mg, n=3",1 (33.3) n (%)
same,Best response: Stable disease ≥6 weeks,"120 mg, n=3",2 (66.7) n (%)
same,Best response: CR,"240 mg, n=7",0 n (%)
same,Best response: Death,"240 mg, n=7",0 n (%)
same,Best response: Not evaluable,"240 mg, n=7",0 n (%)
same,Best response: Partial response,"240 mg, n=7",0 n (%)
same,Best response: Progression,"240 mg, n=7",2 (28.6) n (%)
same,Best response: Stable disease ≥6 weeks,"240 mg, n=7",5 (71.4) n (%)
same,Best response: CR,"360 mg, n=5",0 n (%)
same,Best response: Death,"360 mg, n=5",0 n (%)
same,Best response: Not evaluable,"360 mg, n=5",1 (20.0) n (%)
same,Best response: Partial response,"360 mg, n=5",0 n (%)
same,Best response: Progression,"360 mg, n=5",3 (60.0) n (%)
same,Best response: Stable disease ≥6 weeks,"360 mg, n=5",1 (20.0) n (%)
same,Best response: CR,"540 mg, n=7",0 n (%)
same,Best response: Death,"540 mg, n=7",0 n (%)
same,Best response: Not evaluable,"540 mg, n=7",1 (14.3) n (%)
same,Best response: Partial response,"540 mg, n=7",0 n (%)
same,Best response: Progression,"540 mg, n=7",3 (42.9) n (%)
same,Best response: Stable disease ≥6 weeks,"540 mg, n=7",3 (42.9) n (%)
same,Best response: CR,"700 mg, n=6",0 n (%)
same,Best response: Death,"700 mg, n=6",1 (16.7) n (%)
same,Best response: Not evaluable,"700 mg, n=6",2 (33.3) n (%)
same,Best response: Partial response,"700 mg, n=6",0 n (%)
same,Best response: Progression,"700 mg, n=6",3 (50.0) n (%)
same,Best response: Stable disease ≥6 weeks,"700 mg, n=6",1 (16.7) n (%)
same,Best response: CR,"800 mg, n=5",0 n (%)
same,Best response: Death,"800 mg, n=5",0 n (%)
same,Best response: Not evaluable,"800 mg, n=5",1 (20.0) n (%)
same,Best response: Partial response,"800 mg, n=5",0 n (%)
same,Best response: Progression,"800 mg, n=5",3 (60.0) n (%)
same,Best response: Stable disease ≥6 weeks,"800 mg, n=5",1 (20.0) n (%)
same,Best objective response: progression,"RECIST, all doses",14 n
same,Best objective response: stable disease for ≥6 weeks,"RECIST, all doses",13 n
same,Objective response rate,"RECIST, all doses",0%
same,Patients with stable disease at Week 12,five patients evaluable,four
same,Prostate-specific antigen (PSA) levels,one patient with prostate cancer,considerable reduction
